Test results published in US20200017495A1, “NOVEL HETEROCYCLIC COMPOUNDS AND THEIR USE IN PREVENTING OR TREATING BACTERIAL INFECTIONS” (priority 2017, published 2020).

System: Klebsiella pneumoniae (KPN) isolates
Experiment: MIC of compounds alone and combined with antibacterials, broth microdilution (CLSI)
Format: cell-based
In short: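 Log-phase isolates were inoculated at a final 5.10^5 CFU/mL in cation-adjusted Mueller-Hinton broth and incubated 16-20 h at 35° C in ambient air. MIC was the lowest concentration preventing visible growth; for combinations, the antibacterial MIC was read at each compound concentration.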

## C=CC1=C(C(=O)O)N2C(=O)[C@@H](NC(=O)/C(=N\OCC(=O)O)c3csc(N)n3)[C@H]2SC1 [FIX, Cefixime]
Strain KPN 160143, genotype TEM-1, SHV-1, CTX-M-15, KPC-2, OXA-1
  MIC: >128 µg/mL
Strain KPN 190128, genotype TEM-1, SHV-32, CTX-M-15, OXA-1
  MIC: >128 µg/mL
Strain KPN 190270, compound alone
  MIC: >128 µg/mL
Strain KPN 190270, genotype TEM-1, SHV-76, CTX-M-15, OXA-1
  MIC: >128 µg/mL
Strain KPN 190425, genotype TEM-1, SHV-1, CTX-M-15, OXA-1
  MIC: >128 µg/mL
Strain KPN 190551, genotype TEM-1, SHV-1, CTX-M-15, OXA-1
  MIC: >128 µg/mL
Strain KPN 200047, genotype TEM-1, SHV-32, CTX-M-15, OXA-1
  MIC: >128 µg/mL
Strain KPN 200327, genotype TEM-1, SHV-1, CTX-M-15, OXA-1
  MIC: 64 µg/mL
Strain KPN 260251, genotype TEM-1, SHV-11, SHV-12, CTX-M-15, KPC-2
  MIC: >128 µg/mL
Strain KPN 260252, genotype TEM-1, SHV-11, KPC-3
  MIC: >128 µg/mL
Strain KPN 260376, genotype SHV-1, SHV-49, OXA-1
  MIC: >128 µg/mL
Strain KPN 270077, genotype TEM-1, SHV-1, CTX-M-15
  MIC: >128 µg/mL
Strain KPN 700603, genotype SHV-18, OXA-2
  MIC: 16 µg/mL
Strain KPN ARA, genotype TEM-1, SHV-11, CTX-M-15, OXA-1, OXA-48
  MIC: >128 µg/mL
Strain KPN BAA-1898, genotype TEM-1, SHV-11, SHV-12, KPC-2
  MIC: >128 µg/mL
Strain KPN LIB, genotype SHV-11, OXA-48
  MIC: <=0.25 μg/mL
Strain KPN UFR22_O, genotype TEM-1, SHV-1, OXA-48
  MIC: <=0.25 μg/mL
Strain KPN UFR23, genotype TEM-1, SHV-1, OXA-48
  MIC: <=0.25 μg/mL
Strain KPN UFR24, genotype TEM-1, SHV-2, SHV-11, OXA-1, OXA-48, OXA-47
  MIC: >128 µg/mL
Strain KPN UFR25, compound alone
  MIC: >128 µg/mL
Strain KPN UFR25, genotype TEM-1, SHV-11, CTX-M-15, OXA-162
  MIC: >128 µg/mL
Strain KPN UFR27, genotype TEM-1, SHV-28, CTX-M-15, OXA-204
  MIC: >128 µg/mL
Strain KPN UFR28, genotype TEM-1, SHV-1, CTX-M-15, OXA-1, OXA-232
  MIC: 256 µg/mL
Strain KPN UFR33, genotype TEM-2, SHV-12, CTX-M-15, OXA-1, OXA-10
  MIC: >128 µg/mL
Strain KPN UFR42, genotype SHV-2, CTX-M-15 OXA-1, OXA-181, NDM-1
  MIC: >128 µg/mL
Strain KPN UFR43, genotype SHV-11, CTX-M-15, CMY-2, OXA-1, NDM-1
  MIC: >128 µg/mL
Strain KPN UFR46, genotype TEM-1, SHV-12, CTX-M-15, OXA-9, VIM-1
  MIC: >128 µg/mL
Strain KPN UFR53, genotype TEM-1, IMP-1
  MIC: >128 µg/mL
Strain KPN UFR65, genotype TEM-1, SHV-11, KPC-2
  MIC: >128 µg/mL
Strain KPN UFR66, compound alone
  MIC: 512 µg/mL
Strain KPN UFR66, genotype TEM-1, SHV-11, CTX-M-15, KPC-2
  MIC: 512 µg/mL
Strain KPN UFR67, genotype TEM-1, SHV-11, KPC-3
  MIC: >128 µg/mL
Strain KPN UFR68, compound alone
  MIC: >128 µg/mL
Strain KPN UFR68, genotype TEM-1, SHV-11, CTX-M-15, KPC-3
  MIC: >128 µg/mL
Strain KPN UFR76, genotype TEM-155, SHV-11, ACT-1, OXA-2
  MIC: >128 µg/mL
Strain KPN UFR77, genotype CMY-2
  MIC: 128 µg/mL
Strain KPN UFR78, genotype TEM-1, SHV-1, CTX-M-15, CMY-2, OXA-1, OXA-48
  MIC: >128 µg/mL
Strain KPN UFR79, genotype DHA-1, OXA-1
  MIC: >128 µg/mL
Strain KPN UFR80, genotype SHV-11, DHA-1, OXA-1
  MIC: <=0.25 μg/mL
Strain KPN UFR81, genotype TEM-1, SHV-1, DHA-1, OXA-48
  MIC: >128 µg/mL
Strain KPN UFR162, genotype SHV-28, TEM-1, CTX-M-15, OXA-181, OXA-181, NDM-1, antibiotic alone
  MIC: >128 µg/mL
Strain KPN UFR162, with AF2 @ 8 μg/mL
  MIC ATB in combination: >128 µg/mL
Strain KPN UFR162, with AF3 @ 8 μg/mL
  MIC ATB in combination: <0.25 µg/mL
Strain KPN UFR162, with CLA @ 4 μg/mL
  MIC ATB in combination: >128 µg/mL
Strain KPN UFR163, genotype TEM-1, SHV-1, CTX-M-15, OXA-232, OXA-9, NDM-1, qnrB1, qepA, RmtB, antibiotic alone
  MIC: >128 µg/mL
Strain KPN UFR163, with AF2 @ 8 μg/mL
  MIC ATB in combination: >128 µg/mL
Strain KPN UFR163, with AF3 @ 8 μg/mL
  MIC ATB in combination: <0.25 µg/mL
Strain KPN UFR163, with CLA @ 4 μg/mL
  MIC ATB in combination: >128 µg/mL
Strain KPN UFR164, genotype SHV-11, CTX-M-15, OXA-1, OXA-181, NDM-1, antibiotic alone
  MIC: >128 µg/mL
Strain KPN UFR164, with AF2 @ 8 μg/mL
  MIC ATB in combination: >128 µg/mL
Strain KPN UFR164, with AF3 @ 8 μg/mL
  MIC ATB in combination: >128 µg/mL
Strain KPN UFR164, with CLA @ 4 μg/mL
  MIC ATB in combination: >128 µg/mL
Strain KPN UFR165, genotype TEM-1, SHV-11, CTX-M-15, OXA-1, OXA-181, NDM-1, antibiotic alone
  MIC: >128 µg/mL
Strain KPN UFR165, with AF2 @ 8 μg/mL
  MIC ATB in combination: 64 µg/mL
Strain KPN UFR165, with AF3 @ 8 μg/mL
  MIC ATB in combination: >128 µg/mL
Strain KPN UFR165, with CLA @ 4 μg/mL
  MIC ATB in combination: >128 µg/mL
Strain KPN UFR166, genotype TEM-1, TEM-1, CTX-M-15, OXA-181, OXA-9, NDM-1, antibiotic alone
  MIC: >128 µg/mL
Strain KPN UFR166, with AF2 @ 8 μg/mL
  MIC ATB in combination: >128 µg/mL
Strain KPN UFR166, with AF3 @ 8 μg/mL
  MIC ATB in combination: >128 µg/mL
Strain KPN UFR166, with CLA @ 4 μg/mL
  MIC ATB in combination: >128 µg/mL
Strain KPN UFR167, genotype TEM-1, SHV-12, CTX-M-15, OXA-9, NDM-1, antibiotic alone
  MIC: >128 µg/mL
Strain KPN UFR167, with AF2 @ 8 μg/mL
  MIC ATB in combination: >128 µg/mL
Strain KPN UFR167, with AF3 @ 8 μg/mL
  MIC ATB in combination: >128 µg/mL
Strain KPN UFR167, with CLA @ 4 μg/mL
  MIC ATB in combination: >128 µg/mL
Strain KPN UFR168, genotype SHV-2, CTX-M-15, OXA-1, OXA-181, NDM-1, ArmA, antibiotic alone
  MIC: >128 µg/mL
Strain KPN UFR168, with AF2 @ 8 μg/mL
  MIC ATB in combination: >128 µg/mL
Strain KPN UFR168, with AF3 @ 8 μg/mL
  MIC ATB in combination: >128 µg/mL
Strain KPN UFR168, with CLA @ 4 μg/mL
  MIC ATB in combination: >128 µg/mL
Strain KPN UFR169, genotype TEM-1, SHV-28, CTX-M-15, CMY-4, OXA-1, NDM-1, antibiotic alone
  MIC: >128 µg/mL
Strain KPN UFR169, with AF2 @ 8 μg/mL
  MIC ATB in combination: >128 µg/mL
Strain KPN UFR169, with AF3 @ 8 μg/mL
  MIC ATB in combination: >128 µg/mL
Strain KPN UFR169, with CLA @ 4 μg/mL
  MIC ATB in combination: >128 µg/mL
Strain KPN UFR170, genotype TEM-1, SHV-28, CTX-M-15, CMY-6, OXA-1, OXA-9, NDM-1, antibiotic alone
  MIC: >128 µg/mL
Strain KPN UFR170, with AF2 @ 8 μg/mL
  MIC ATB in combination: <0.25 µg/mL
Strain KPN UFR170, with AF3 @ 8 μg/mL
  MIC ATB in combination: >128 µg/mL
Strain KPN UFR170, with CLA @ 4 μg/mL
  MIC ATB in combination: >128 µg/mL
Strain KPN UFR171, genotype TEM-1, SHV-28, CTX-M-15, OXA-1, OXA-10, NDM-1, RmtA, antibiotic alone
  MIC: >128 µg/mL
Strain KPN UFR171, with AF2 @ 8 μg/mL
  MIC ATB in combination: <0.25 µg/mL
Strain KPN UFR171, with AF3 @ 8 μg/mL
  MIC ATB in combination: <0.25 µg/mL
Strain KPN UFR171, with CLA @ 4 μg/mL
  MIC ATB in combination: >128 µg/mL
Strain KPN UFR172, genotype SHV-38, CMY-16, OXA-10, NDM-1, antibiotic alone
  MIC: >128 µg/mL
Strain KPN UFR172, with AF2 @ 8 μg/mL
  MIC ATB in combination: <0.25 µg/mL
Strain KPN UFR172, with AF3 @ 8 μg/mL
  MIC ATB in combination: <0.25 µg/mL
Strain KPN UFR172, with CLA @ 4 μg/mL
  MIC ATB in combination: >128 µg/mL
Strain KPN UFR215, genotype SHV-27, CTX-M-15
  MIC: >128 µg/mL
Strain KPN UFR216, genotype SHV-28, CTX-M-15
  MIC: >128 µg/mL
Strain KPN UFR217, genotype TEM-1, SHV-1, CTX-M-15
  MIC: >128 µg/mL
Strain KPN UFR219, genotype SHV-12, CTX-M-15
  MIC: >128 µg/mL
Strain KPN UFR220, genotype TEM-1, SHV-12, DHA-1
  MIC: >128 µg/mL
Strain KPN UFR221, genotype TEM-1, SHV-11, CTX-M-14, DHA-1
  MIC: 64 µg/mL
Strain KPN UFR222, genotype DHA-2
  MIC: >128 µg/mL
Strain KPN UFR227O, genotype TEM-x, SHV-x, CTX-M-x
  MIC: >128 µg/mL
Strain KPN UFR229O, genotype SHV-12, VIM-1, antibiotic alone
  MIC: >128 µg/mL
Strain KPN UFR229O, with AF2 @ 8 μg/mL
  MIC ATB in combination: >128 µg/mL
Strain KPN UFR229O, with AF3 @ 8 μg/mL
  MIC ATB in combination: >128 µg/mL
Strain KPN UFR229O, with CLA @ 4 μg/mL
  MIC ATB in combination: >128 µg/mL
